How the values were obtained:
Assay type in all cases: in vivo, C57BL/6J mice
PPARα = test: Liver mRNA by semi-quantitative RT-PCR: PPARα; settings: HFD-fed mice, oral gavage once daily 4 weeks, AnK 10, 20, 40, Feno 250, Metf 300 mg/kg/day, vs HF group
Excerpt: (§1) The 4-week old male C57BL/6J mice (total amount n=63) were obtained from the National Laboratory Animal Center (Taipei, Taiwan). After acclimatization for one week, all of the mice were randomly assigned into a control (CON) group and a high-fat diet (HFD) group. […] After HFD feeding for 8 weeks, the HFD group was randomly subdivided into six groups (n=9 per group) receiving different treatments and fed on HFD. […] The HF+AnK1, HF+AnK2, and HF+AnK3 groups are collectively termed AnK-treated HFD groups in the following examples. The CON mice were administered vehicle. All treatments were administered via oral gavage once daily. After administration for 4 weeks, all mice were fasted 12 hours, and blood was collected from the retro-orbital sinus under ether anesthesia. […]
(§2) Total RNA from liver tissue of mice was isolated with a Trizol Reagent (Molecular Research Center, Inc., Cincinnati, Ohio, USA) according to the manufacturer's instructions. The integrity of the extracted total RNA was examined by 2% agarose gel electrophoresis, and the RNA concentration was determined by the ultraviolet (UV) light absorbency at 260 nm and 280 nm (Spectrophotometer U-2800A, Hitachi). […]
(§3) Levels of mRNA of target genes were quantified by semi-quantitative reverse transcription polymerase chain reaction (RT-PCR). […] PCR products were analyzed by 2% agarose gel and stained with ethidium bromide.

aP2 = test: Liver mRNA by semi-quantitative RT-PCR: aP2; settings: HFD-fed mice, oral gavage once daily 4 weeks, AnK 10, 20, 40, Feno 250, Metf 300 mg/kg/day, vs HF group
Excerpt: as §1, §2, §3

apoCIII = test: Liver mRNA by semi-quantitative RT-PCR: apoCIII; settings: HFD-fed mice, oral gavage once daily 4 weeks, AnK 10, 20, 40, Feno 250, Metf 300 mg/kg/day, vs HF group
Excerpt: as §1, §2, §3

[1] = tested on: phospho-Akt (Ser^473)/total-Akt; test: Western blotting of phospho-Akt/total-Akt in skeletal muscle and liver; settings: HFD-induced reduction, AnK 10, 20, 40, Feno 250, Metf 300 mg/kg/day, vs HF group
Excerpt: (§4) The 4-week old male C57BL/6J mice (total amount n=63) were obtained from the National Laboratory Animal Center (Taipei, Taiwan). After acclimatization for one week, all of the mice were randomly assigned into a control (CON) group and a high-fat diet (HFD) group. […] After HFD feeding for 8 weeks, the HFD group was randomly subdivided into six groups (n=9 per group) receiving different treatments and fed on HFD. […] The HF+AnK1, HF+AnK2, and HF+AnK3 groups are collectively termed AnK-treated HFD groups in the following examples. The CON mice were administered vehicle. All treatments were administered via oral gavage once daily. After administration for 4 weeks, all mice were fasted 12 hours, and blood was collected from the retro-orbital sinus under ether anesthesia. At the end of the experiment, the mice were sacrificed via carbon dioxide inhalation. Liver, adipose tissue, and skeletal muscle were collected and immediately stored at −80° C. for target gene analysis.
About 0.1 g of liver tissue, skeletal muscle, or adipose tissue was used for the homogenate samples. Samples were powdered under liquid nitrogen and homogenized for 20 seconds in 500 μL buffer containing 20 mM Tris-HCl (pH 7.4 at 4° C.), 2% SDS, 5 mM EDTA, 5 mM EGTA, 1 mM dithiothreitol (DTT), 100 mM NaF, 2 mM sodium vanadate, 0.5 mM phenylmethylsulfonyl fluoride, 10 μg/mL leupeptin, and 10 μL/mL pepstatin. The total membrane fraction was used for measurement. The protein concentration in supernatant was determined with a BCA protein assay kit (Thermo Scientific, Rockford, Ill., USA). […] The membrane was blocked with 5% slim milk in Tris-buffered saline (TBS)(Amersham BioSciences, Uppsala, Sweden) containing 0.05% Tween-20 (Bio Rad, CA, USA) and incubated overnight at 4° C. with antibodies at 1:200 dilution. Subsequently, the membrane was washed three times with TBS containing 0.05% Tween-20 and incubated with secondary antibody anti-rabbit (1:1000)(Jackson ImmunoResearch Laboratories, Inc., PA, USA) for 1 hour. Immunoreactive bands were detected with ECL reagent kit (GE Healthcare BioSciences, Buckinghamshire, UK). The intensity of Western blot signals was analyzed using AlphaEase FC software (Alpha Innotech Corporation, Randburg, South Africa). The structural protein GAPDH in the samples was used as the loading control.

[2] = tested on: high-fat diet-fed C57BL/6J mouse; test: Hepatic lipids in HFD-fed mice
Description: as §4, with “Animal studies” for “The 4-week old male C57BL/6J mice (total amount n=63)”, “performed and approved under” for “obtained from”, “guidelines of the Institutional” for “National Laboratory”, “Care and Use Committee in Taiwan (12 Mar. 2015). […]” for “Center (Taipei, Taiwan).”, “group. For the following 12 weeks, the CON group (n=9) received a control diet or a low-fat diet (Diet 12450B, Research Diets, Inc., New Brunswick, N.J., USA), while the HFD group (n=54) received a high-fat diet (Diet 12451, Research Diets, New Brunswick, N.J., USA).” for “group.”

SREBP1c = test: Liver mRNA by semi-quantitative RT-PCR: SREBP1c; settings: HFD-fed mice, oral gavage once daily 4 weeks, AnK 10, 20, 40, Feno 250, Metf 300 mg/kg/day, vs HF group
Excerpt: as §1, §2, §3

G6Pase = test: Liver mRNA by semi-quantitative RT-PCR: G6Pase; settings: HFD-fed mice, oral gavage once daily 4 weeks, AnK 10, 20, 40, Feno 250, Metf 300 mg/kg/day, vs HF group
Excerpt: as §1, §2, §3

[3] = HF + AnK1: AnK 10 mg/kg/day oral gavage 4 weeks
[4] = HF + AnK2: AnK 20 mg/kg/day oral gavage 4 weeks
[5] = HF + AnK3: AnK 40 mg/kg/day oral gavage 4 weeks
[6] = HF + Metf: metformin 300 mg/kg/day oral gavage 4 weeks

Compound | PPARα mRNA levels (PPARα) | mRNA levels of aP2 (aP2) | mRNA levels of apoCIII (apoCIII) | expression levels of phosphor-Akt/total-Akt ([1]; liver) | expression levels of phosphor-Akt/total-Akt ([1]; skeletal muscle) | Liver lipids total lipid [2, 3] | Liver lipids triacylglycerol [2, 3] | Liver lipids total lipid [2, 4] | Liver lipids triacylglycerol [2, 4] | Liver lipids total lipid [2, 5] | Liver lipids triacylglycerol [2, 5] | mRNA levels of SREBP1c (SREBP1c) | mRNA levels of G6Pase (G6Pase) | Liver lipids total lipid [2, 6] | Liver lipids triacylglycerol [2, 6]
C=C(CC[C@@H](C)[C@H]1CC[C@H]2C3=C(C(=O)C[C@]12C)[C@@]1(C)CC[C@@H](O)[C@](C)(O)[C@@H]1C[C@@H]3O)C(C)C(=O)O (stereo partly drawn) [AnK, 3α,4β,7β-trihydroxy-4α-methylergosta-8,24(28)-dien-11-on-25S-26-oic acid] | increased | significantly decreased | significantly decreased | significantly reversed | significantly reversed | 73.1 ± 4.7 mg/g | 56.3 ± 4.2 µmol/g | 66.0 ± 4.8 mg/g | 45.7 ± 3.9 µmol/g | 64.5 ± 5.2 mg/g | 45.2 ± 4.6 µmol/g | significantly decreased | significantly decreased |  | 
CN(C)C(=N)N=C(N)N [Metf, metformin, reference compound] | increased | significantly decreased | significantly decreased | significantly reversed | significantly reversed |  |  |  |  |  |  | significantly decreased | significantly decreased | 65.3 ± 4.9 mg/g | 45.4 ± 4.2 µmol/g

— patent US10124012B2, “Method for treatment of hyperglycemia and hyperlipidemia” (priority 2016, dated 2018)
